Data from patent US20240382463A1, “Composition Comprising HDAC Inhibitor and Immune Checkpoin Inhibitor and Methods For Using the Same” (Avstera Therapeutics Corp., priority 2023, published 2024).
Like-named read-outs stand apart in the source and are kept apart here.

Experiments:
melanoma tumor models = conditions: potentiates anti-PD1 therapy; tumors are not completely eliminated; cited from earlier work
[1] = system: S. typhimurium (TA98 and TA1537); conditions: cited from earlier work
HDAC6 = target: T1, HDAC6 (Homo sapiens, UniProt Q9UBN7); conditions: cited from earlier work
T1 sequence (Q9UBN7 1-1215): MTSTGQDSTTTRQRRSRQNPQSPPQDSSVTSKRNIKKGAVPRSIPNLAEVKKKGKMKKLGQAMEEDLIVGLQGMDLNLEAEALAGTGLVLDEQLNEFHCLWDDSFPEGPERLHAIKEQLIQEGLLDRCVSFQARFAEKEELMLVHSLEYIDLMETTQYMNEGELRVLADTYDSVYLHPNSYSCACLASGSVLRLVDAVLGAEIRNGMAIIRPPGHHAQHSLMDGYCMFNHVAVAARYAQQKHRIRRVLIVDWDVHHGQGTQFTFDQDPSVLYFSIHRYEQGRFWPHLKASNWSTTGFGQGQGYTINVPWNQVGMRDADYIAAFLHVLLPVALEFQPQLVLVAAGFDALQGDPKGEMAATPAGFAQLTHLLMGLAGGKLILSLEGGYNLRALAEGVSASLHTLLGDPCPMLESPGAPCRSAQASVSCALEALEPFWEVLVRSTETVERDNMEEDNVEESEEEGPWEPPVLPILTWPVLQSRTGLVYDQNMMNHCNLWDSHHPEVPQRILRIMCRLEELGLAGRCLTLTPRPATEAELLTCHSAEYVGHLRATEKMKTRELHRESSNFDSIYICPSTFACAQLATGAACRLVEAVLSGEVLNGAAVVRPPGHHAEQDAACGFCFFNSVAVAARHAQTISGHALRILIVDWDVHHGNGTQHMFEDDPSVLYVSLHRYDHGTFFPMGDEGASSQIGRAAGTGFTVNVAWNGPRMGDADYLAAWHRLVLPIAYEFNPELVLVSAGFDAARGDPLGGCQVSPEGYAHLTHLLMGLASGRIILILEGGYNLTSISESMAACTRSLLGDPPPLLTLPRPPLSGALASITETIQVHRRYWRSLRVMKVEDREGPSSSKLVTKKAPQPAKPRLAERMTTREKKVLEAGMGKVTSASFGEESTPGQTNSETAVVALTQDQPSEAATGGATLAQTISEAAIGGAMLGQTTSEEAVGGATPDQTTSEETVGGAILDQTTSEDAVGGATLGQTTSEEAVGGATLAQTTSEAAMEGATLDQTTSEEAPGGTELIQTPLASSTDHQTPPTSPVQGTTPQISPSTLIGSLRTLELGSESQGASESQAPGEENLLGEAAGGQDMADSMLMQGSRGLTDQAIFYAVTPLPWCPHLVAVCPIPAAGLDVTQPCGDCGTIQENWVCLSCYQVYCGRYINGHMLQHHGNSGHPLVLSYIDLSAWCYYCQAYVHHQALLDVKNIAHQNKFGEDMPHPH

CT26 colon cancer tumors = assay: CT26 colon cancer model, in vivo tumor growth; parameters: species or system Balb/c mice
Method: For the CT26 colon cancer model animal studies were performed by Adgyl Lifesciences. Mice were implanted with 0.5×10^6 CT26 cells in the right flanks of 7-8 week-old female Balb/c mice. […] Tumor volume and body weight were monitored twice weekly. Tumor dissection and single-cell suspension: Tumor single-cell suspensions were obtained by mincing the tumor tissue with scalps in petri dishes with complete media, followed by incubation of the minced tumors in a digestion solution (collagenase I, collagenase IV, hyaluronidase V, and DNase I) at 37° C. with rotation for 30-45 min. The digested solution was passed by a cell strainer to remove undigested material, centrifuged, washed and resuspended in complete media.

[2] = system: THP1 cells differentiated to macrophages; assay: THP1 macrophages, M2 polarization signalling, Western blot; format: cell-based, human
Method: (§1) Immunoblot-blot, FACs, and gPCR: For western-blot analysis cell monolayers were washed in PBS and lyzed with complete RIPA buffer containing protease, phosphatases and the HDAC inhibitor Panabinostat (10 nM). Cells were sonicated for 12 cycles at high intensity and the cell lysates were centrifuged at 12,000 rpm for 10 minutes at 4° C. to remove the cell debris. Protein quantitation on the supernatants was performed using BCA assay. Protein samples were prepared at 1 ug/uL concentration with 6× Lamelli buffer and incubated for 5 minutes at 90° C. Precast gels containing 20 μg of protein/sample were run and the gels were transferred to a PVDF membrane and stained with specific antibodies. The antibodies used for western-blot are anti-α-tubulin (mouse DM1A, Cell Signaling Tech), anti-acetyl-α-tubulin (rabbit K40, Cell Signaling Tech), anti-iNOS (rabbit polyclonal, Invitrogen), anti-Arginasel (rabbit D4E3M, Cell Signaling Tech). Anti-c-Myc (rabbit D84C12, cell Signaling Tech), anti-acetylated-c-Myc (Rabbit polyclonal Acetyl-Lys148-c-Myc, Sigma-Aldrich), anti-Stat6 (Rabbit D3H4, Cell Signaling Tech), anti-Phospho-Stat6 (Polyclonal Rabbit, Cell Signaling Tech), anti-Stat3 (Rabbit 79D7, Cell Signaling Tech), anti-Phospho-Stat3-727 (Rabbit D8C2Z, Cell Signaling Tech), anti-phospho-Stat3-705 (Rabbit D3A7, Cell Signaling Tech). […]

SM1 melanoma tumors = assay: SM1 melanoma model, in vivo tumor growth; parameters: species or system C57BL/6 mice
Method: In vivo tumor growth: Analysis of tumor growth using the murine SM1 melanoma model were performed in accordance with IACUC guidelines at Georgetown University. Murine melanoma tumors were established by implanting 0.75×10^6 SM1 cells in the right flank area of 6-8 weeks-old female C57BL/6 mice. […] Anti-PD1 or isotype control (BE0146-CUST and BE0089-CUST, Bio X cell) were injected i.p. (15 mg/kg) in 100 ul PBS every other day. Tumor growth was monitored using electronic calipers, the length and width of detected tumors were measured every other day and tumor volumes calculated using the formula ½*length*(width)^2. The body weights of animals were recorded once a week using a portable scale to monitor general health.

[3] = Plasma pharmacokinetics after oral gavage; format: in vivo, C57BL/6 mice; conditions: PEG6000 formulation compared to the CMC formulation
Method: LS-MS: Plasma samples were obtained using EDTA as anticoagulant and run by Adgyl Life Sciences using a fit for purpose LC-MS/MS method. Briefly, plasma samples were run in a triple Quad 6500+LC-MS/MS System using a 50:50 (ACN:Water v/v) working solution diluent. A mobile Phase A: 2 mM Ammonium formate with 0.1% Formic acid, a mobile Phase B: Acetonitrile with 0.1% formic Acid Isocratic mode; Pump A:B: 50:50. Using a Phenomenex Phenyl-Hexyl column of Sum particle size. […] The calibration curve was generated using area ratio of analyte area: area of internal standard vs concentration and was regressed using linear regression equation and weighting of 1/x2.
The plasma pharmacokinetic parameters of SS-208 were determined from concentration time curves obtained following a single IV and oral route of administration in male C57BL/6 mice. Values are expressed as mean and n=3 mice/time point/group.
However, tumors are not completely eliminated. […] For oral gavage, CMC or PEG6000 formulations were used in fed or starved mice.

[4] = system: myeloid and lymphoid lymphoma cell lines; assay: c-Myc acetylation and levels in lymphoma cell lines, Western blot; format: cell-based, human
Method: as §1

hERG = hERG (Homo sapiens, UniProt Q12809); assay: hERG test; conditions: up to 30 μM
[5] = system: BMA31A7 murine macrophages; assay: M2 polarization of BMA31A7 macrophages, Western blot
Excerpt: (§2) Two different cell lines were used as they are better models for polarization towards M1 and M2, respectively.

[6] = GLP safety and toxicology studies; conditions: rats and dogs
[7] = Safety pharmacology (CNS, pulmonary, cardiovascular); conditions: in vivo
[8] = system: murine bone marrow-derived macrophages (BMDM)
Excerpt: (§3) For qPCR, RNA was isolated by Trizol purification followed by reverse transcription using iScript™ cDNA Synthesis Kit and qPCR using iQ™ SYBR® Green Supermix (Biorad). qPCR were run on real time PCR, CFX Opus 96 (Biorad).

[9] = system: Raw264.7 murine macrophages; assay: M1 polarization of Raw264.7 macrophages, Western blot
Excerpt: as §2

[10] = system: primary human macrophages; assay: Polarization of primary human macrophages (qPCR, RNAseq); format: cell-based
Method: as §3
RNAseq libraries were prepared following the manufacturer's instructions. The feature-barcode matrices generated by the 10× Genomics CellRanger pipeline were analyzed with an SCTransform workflow (Seurat v4.3.0.1) in RStudio. Cells with greater than 10% mitochondrial counts, fewer than 100 genes detected, or with a number of counts greater than the 93rd percentile of counts were removed. Cell type recognition was performed using the reference-based scRNA-seq annotation package, SingleR. The Immunological Genome Project (ImmGen) was used as the reference dataset. The Seurat object was filtered to include the major immune cell populations present.
As a readout of polarization, changes were analyzed in the expression levels of genes associated with the M1 and M2 phenotype in human macrophages.

[11] = system: S. typhimurium (TA98 and TA1537); assay: Ames assay (mutagenicity); format: cell-based; conditions: for increase in the number of colonies: with and without S9 mix
Hepatocyte stability = format: in vitro ADME; conditions: human, hepatocytes; read-out: Hepatocytes stability (t½)

Sequence of hERG (Q12809 whole entry): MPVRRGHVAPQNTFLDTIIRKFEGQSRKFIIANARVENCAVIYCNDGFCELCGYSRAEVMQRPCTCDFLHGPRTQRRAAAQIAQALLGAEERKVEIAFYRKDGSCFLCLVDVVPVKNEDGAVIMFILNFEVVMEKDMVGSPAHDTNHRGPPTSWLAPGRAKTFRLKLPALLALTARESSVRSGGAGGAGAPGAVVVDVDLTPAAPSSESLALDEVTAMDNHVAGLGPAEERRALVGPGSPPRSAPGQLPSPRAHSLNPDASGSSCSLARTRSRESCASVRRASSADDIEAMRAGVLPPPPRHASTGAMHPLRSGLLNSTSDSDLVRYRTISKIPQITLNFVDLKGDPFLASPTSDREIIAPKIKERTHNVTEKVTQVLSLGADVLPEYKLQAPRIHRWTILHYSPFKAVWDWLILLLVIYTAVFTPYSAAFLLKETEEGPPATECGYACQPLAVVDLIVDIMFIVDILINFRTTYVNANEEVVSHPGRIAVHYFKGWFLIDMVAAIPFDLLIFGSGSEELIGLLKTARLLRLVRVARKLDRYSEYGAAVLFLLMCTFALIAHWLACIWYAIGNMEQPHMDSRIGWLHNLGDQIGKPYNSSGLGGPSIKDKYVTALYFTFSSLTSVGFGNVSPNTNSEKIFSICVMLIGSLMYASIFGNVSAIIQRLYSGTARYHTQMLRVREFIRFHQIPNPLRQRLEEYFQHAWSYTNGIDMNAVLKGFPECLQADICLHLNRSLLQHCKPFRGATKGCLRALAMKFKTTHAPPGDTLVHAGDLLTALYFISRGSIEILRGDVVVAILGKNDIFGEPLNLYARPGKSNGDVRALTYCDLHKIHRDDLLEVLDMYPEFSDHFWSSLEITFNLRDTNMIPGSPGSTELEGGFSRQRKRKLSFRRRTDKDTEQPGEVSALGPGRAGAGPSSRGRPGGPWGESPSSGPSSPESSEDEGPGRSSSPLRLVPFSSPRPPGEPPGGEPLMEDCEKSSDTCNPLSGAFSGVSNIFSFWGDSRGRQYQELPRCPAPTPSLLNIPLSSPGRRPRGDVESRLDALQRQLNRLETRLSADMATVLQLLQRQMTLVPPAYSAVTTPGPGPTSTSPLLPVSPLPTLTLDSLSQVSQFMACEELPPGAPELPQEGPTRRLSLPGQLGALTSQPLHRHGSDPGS

CCCCN(Cc1ccc(C(=O)NO)cc1)C(=O)Nc1ccccc1 [Nexturastat-A]
antitumoral effect in melanoma tumor models (melanoma tumor models): antitumoral effect

O=C(NO)c1ccc(CN2CCCc3cc(Cl)ccc32)cc1 [SW100]
AMES test (in words) [1]: AMES-negative

O=C(CCCCCCNC(=O)c1cnc(N(c2ccccc2)c2ccccc2)nc1)NO [ACY-1215]
specificity over HDAC6 than other HDAC isoforms (HDAC6): ten-fold

O=C(NCCc1cc(C(=O)NO)no1)c1ccc(Cl)c(Cl)c1 [AVS100, 5-(2-(3,4-dichlorobenzamido)ethyl)-N-hydroxyisoxazole-3-carboxamide]
tumor growth (CT26 colon cancer tumors; AVS100 100 mg/kg daily gavage, anti-PD1 10 mg/kg i.p. every 4 days): significant tumor growth inhibition | responders with tumor volume lower than 300 mm^3 (CT26 colon cancer tumors; CT26 colon cancer): 20% | M1-like TAMs (CT26 colon cancer tumors; treatment alone): significant increase | M2-like TAMs (CT26 colon cancer tumors; treatment alone): significant reduction | STAT6 phosphorylation in response to IL-4 [2]: not inhibited | c-Myc levels in M0 and M2 polarized macrophages [2]: reduced | tumor growth (SM1 melanoma tumors; 100 mg/kg, daily oral gavage, standalone): significantly reduced | tumor growth, standalone therapies (SM1 melanoma tumors; AVS100 daily oral gavage, anti-PD1 i.p.): similarly reduced | intratumoral CD4 T-cells (SM1 melanoma tumors; flow cytometry): reduction | intratumoral CD8 T-cells (SM1 melanoma tumors; flow cytometry): increase | Cluster 0, IFN-TAMs (SM1 melanoma tumors; scRNAseq of CD45+ cells): increased | central memory CD8 T-cells (CD62L+CD44+) (SM1 melanoma tumors; standalone treatment): specific increase | area under the curve (AUC) levels [3]: higher | bioavailability [3]: higher | maximum concentrations in blood (Cmax) [3]: higher | acetyl-c-Myc [4]: increased | total c-Myc levels [4]: reduced | inhibition in the hERG assay (hERG): no significant inhibition | acetyl-α-tubulin levels ([5]; BMA31A7, AVS100 10 uM): increased | Arg1 upregulation under M2 polarizing conditions ([5]; IL-4 plus IL-13, AVS100 10 uM): blocked | mutagenicity or toxicity in GLP studies [6]: no mutagenicity, toxicity, or adverse effects | alterations of CNS behavior, pulmonary or cardiovascular function [7]: no alterations | Arg1 levels in M2 polarizing conditions ([8]; Western blot): reduced | iNOS levels under M1 polarizing conditions ([8]; Western blot): partial reduction | Il1b levels in M1 cells ([8]; qPCR): increased | M2 markers Arg1, Fizz1, and Tgfb in M2 cells ([8]; qPCR): inhibition | Nos2 levels ([8]; qPCR): did not affect | increase of iNOS levels under M1 polarizing conditions ([9]; LPS plus IFNγ, AVS100 10 uM): did not affect | acetyl-α-tubulin levels ([9]; Raw264.7, AVS100 10 uM): increased | genes of the RelA/NFKB transcriptional program inhibited in M1 cells ([10]; RNAseq, Trust pathway analysis): 45 genes | Cox2, Ccl5, and Socs1 induction ([10]; qPCR, M1 (IFN-γ plus LPS)): partially inhibited | M1 markers Cd64, Tnf and Ido induction ([10]; qPCR, M1 (IFN-γ plus LPS)): did not affect | induction of the M2 markers Cd209, Cd200r1, Mrc1, Tgm2, and Il10 ([10]; qPCR, M2 (IL-4)): prevented | AMES test (in words) [11]: AMES-negative | Ames test (with and without S9) ([11]; TA98, TA1537): negative | increase in the number of colonies ([11]; tester strain TA98, any dose): < 2 fold | increase in the number of colonies ([11]; tester strain TA1537, any dose): < 3 fold | half-life (Hepatocyte stability): 2.25 h
